According to patent US20070134193A1, “Cosmetic and/or pharmaceutical preparations” (priority 2001, published 2007):

Key:
[1] = system: human keratinocytes; test: Cell protecting effect against UVB on human keratinocytes cultivated in vitro (number of keratinocytes, released LDH); assay type: cell-based; conditions: UVB 50 mJ/cm^2, 0.03%
Method: Method: the effect of UVB radiation was investigated in vitro on keratinocytes by determining the release of the cytoplasm enzyme LDH (lactate dehydrogenase). This enzyme serves as a marker for cell damage.
To carry out the test, a defined medium (DMEM) containing fetal calf serum was inoculated with the keratinocytes and added to the plant extract (diluted with saline solution) 72 hours after inoculation.
The keratinocytes were then exposed to a UVB dose (50 mJ/cm^2-tubes: DUKE FL40E).
After incubation for another day ay 37° C./5% CO2. the LDH content in the supernatant phase was determined. The LDH (lactate dehydrogenase) content was spectrophotometrically determined by determining the NADH content during the LDH-catalyzed conversion of pyruvate to lactate by Bonnekoh's method (Bonnekoh B. et al.; Dermatol. Research; 282; 325-329; 1990).
The number of adhering keratinocytes was determined by a DNA assay based on the fluorescence measurement of fluorochromium that binds to cellular DNA using Desaulniers' method (Desaulniers D. et al.; Toxicol. in vitro; 12; 409-422; 1998) and a particle counter. Another test was carried out for comparison using a standard anti-inflammatory, acetyl salicyclic acid.

[2] = system: human fibroblasts; test: Cell protecting effect against UVA on human fibroblasts cultivated in vitro (MDA level, protein content); assay type: cell-based; conditions: UVA 365 nm, + vitamin E, concentration not given
Experimental: The lipoperoxides are degraded to malonaldialdehyde which will crosslink many biological molecules, such as proteins and nuclein bases (enzyme inhibition or mutagenesis).
Method: To carry out these tests, a defined culture medium (DMEM) containing the fibroblasts was inoculated with foetal calf serum and added to the plant extract (in the defined medium containing 10% foetal serum) 72 hours after inoculation. Incubation was carried out at 37° C./5% CO2.
After incubation for 48 hours at 37° C./5% CO2, the culture medium was replaced by saline solution (physioloigcal NaCl solution) and the fibroblasts were exposed to a dose of UVA (365 nm, 20 J/cm^2; tubes: MAZDA FLUOR TFWN40).
After the exposure to UVA, the MDA level (malonaldialdehyde level) in the supernatant sodium chloride solution was quantitatively determined by reaction with thiobarbituric acid. The protein content was determined by Bradford's method using a Coomassie Brilliant Blue color (Bradford, Analytical Biochem., 72; 248-254; 1976).

Compound	Content of LDH released ([1]; UVB alone = 100)	Number of keratinocytes ([1]; control without UV = 100)	MDA level ([2]; 20 J/cm^2)	Protein content [2]
CC(=O)Oc1ccccc1C(=O)O [acetylsalicylic acid]	3(2)	76(5)	–	–
vitamin E	–	–	31(4) % versus control	102(11) % versus control
